The results in this text go back to article PMC10951340, “Two DOT1 enzymes cooperatively mediate efficient ubiquitin-independent histone H3 lysine 76 tri-methylation in kinetoplastids” (Nature Communications, 2024).

In data set [1] the target is T1, Δ42-DOT1A (Trypanosoma brucei, UniProt Q581Z0). The experiment in a line: X-ray crystal structure of the complex ([…] and […] Å). Type of data set: binding. On the set-up: residues 43-295, E. coli, His6-tag cut with PreScission. The note with it: active site; co-crystallised with twofold molar excess.
The target of data set [2] is T1, Δ42-DOT1A. The settings on record: pH 8.5, on ice, 254 nm 1 h; covalent photo-cross-link; labelled compound.
Data set [3] has as its target T2, full-length DOT1A (Trypanosoma brucei, UniProt Q581Z0).
T2 construct: full length (295 residues), Sf9 cells, His6-tag cut with PreScission
T2 sequence (Q581Z0 1-295): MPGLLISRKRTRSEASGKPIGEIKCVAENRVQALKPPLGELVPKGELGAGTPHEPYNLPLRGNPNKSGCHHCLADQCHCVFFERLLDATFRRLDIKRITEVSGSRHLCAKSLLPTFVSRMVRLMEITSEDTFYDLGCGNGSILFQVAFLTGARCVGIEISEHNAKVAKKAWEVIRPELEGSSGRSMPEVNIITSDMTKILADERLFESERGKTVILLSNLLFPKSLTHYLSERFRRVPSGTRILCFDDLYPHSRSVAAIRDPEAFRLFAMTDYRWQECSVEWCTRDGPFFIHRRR
The data set can be described thus: 3H-methyl incorporation into nucleosome; quantitative MS of H3K76. Type of data set: biochemical. The settings on record: co-substrate T. brucei nucleosome, pH 8.5, 25 °C; labelled compound.

Data set [4] addresses Δ27-DOT1B (Trypanosoma brucei, UniProt Q4GZF2). The note with it: co-substrate T. brucei nucleosome, pH 8.5, 25 °C; labelled compound.
For data set [5], the target named is DOT1L (1-420) (human, UniProt Q8TEK3 1-420). The experiment in a line: fluorescence polarization; n = 2; FP: 5 nM probe, 100 mM NaCl, 20 mM Tris-HCl pH 7.5, 5% glycerol, 0.5 mM TCEP, 25 °C, 10 min; footprinting at ambient temperature. The note with it: protein: recombinant; tags: His6 cleaved (PreScission); label: 5'-FAM on strand 1; 5' overhang 2 nt (CC) on strand 2. (In general: Fluorescence polarisation rises when a labelled molecule tumbles more slowly, as on binding a larger partner.)
DOT1L (1-420), sequence (Q8TEK3 1-420): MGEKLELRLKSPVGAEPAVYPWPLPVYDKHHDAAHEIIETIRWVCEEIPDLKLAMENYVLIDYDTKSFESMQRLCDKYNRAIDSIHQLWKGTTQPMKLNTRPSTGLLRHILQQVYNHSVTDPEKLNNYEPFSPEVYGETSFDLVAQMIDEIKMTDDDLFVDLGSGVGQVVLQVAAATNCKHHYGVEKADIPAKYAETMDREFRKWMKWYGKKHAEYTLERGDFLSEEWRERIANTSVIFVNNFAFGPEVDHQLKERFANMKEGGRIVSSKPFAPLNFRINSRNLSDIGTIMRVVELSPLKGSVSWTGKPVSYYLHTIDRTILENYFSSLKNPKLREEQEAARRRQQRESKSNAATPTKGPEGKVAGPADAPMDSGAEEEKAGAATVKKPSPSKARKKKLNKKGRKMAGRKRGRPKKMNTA

For data set [6], the target named is T3, Δ42-DOT1A (Trypanosoma brucei strain Lister 427, UniProt Q581Z0 43-295).
T3 sequence: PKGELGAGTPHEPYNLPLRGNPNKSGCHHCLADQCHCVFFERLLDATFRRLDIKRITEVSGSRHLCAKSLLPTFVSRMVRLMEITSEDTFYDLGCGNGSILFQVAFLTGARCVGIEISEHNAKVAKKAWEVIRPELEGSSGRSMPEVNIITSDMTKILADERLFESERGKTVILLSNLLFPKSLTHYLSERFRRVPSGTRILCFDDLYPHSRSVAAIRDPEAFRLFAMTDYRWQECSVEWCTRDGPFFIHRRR
The data set can be described thus: fluorescence polarization; not detectable; n = 1; FP: 5 nM probe, 100 mM NaCl, 20 mM Tris-HCl pH 7.5, 5% glycerol, 0.5 mM TCEP, 25 °C, 10 min; footprinting at ambient temperature. The settings on record: protein: recombinant; tags: His6 cleaved (PreScission); label: 5'-FAM on strand 1; 5' overhang 2 nt (CC) on strand 2.

Data set [7] deals with T4, DOT1A full-length (Trypanosoma brucei strain Lister 427, UniProt Q581Z0 1-295).
T4 sequence: T2 sequence (Q581Z0 1-295)
The experiment in a line: fluorescence polarization; n = 1; FP: 5 nM probe, 100 mM NaCl, 20 mM Tris-HCl pH 7.5, 5% glycerol, 0.5 mM TCEP, 25 °C, 10 min; footprinting at ambient temperature. The note with it: protein: recombinant; tags: His6 cleaved (PreScission); label: 5'-FAM on strand 1; 5' overhang 2 nt (CC) on strand 2.

Δ27-DOT1B, sequence (Q4GZF2 entry or part of it, stated change not applied): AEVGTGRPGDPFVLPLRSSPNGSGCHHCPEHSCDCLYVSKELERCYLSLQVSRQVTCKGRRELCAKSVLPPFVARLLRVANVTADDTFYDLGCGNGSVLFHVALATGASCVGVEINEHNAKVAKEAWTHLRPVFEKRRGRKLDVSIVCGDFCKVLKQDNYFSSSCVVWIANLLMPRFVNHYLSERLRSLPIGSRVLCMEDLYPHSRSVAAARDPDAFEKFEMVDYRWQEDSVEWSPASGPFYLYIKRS

Consider `Nc1ncnc2c1ncn2[C@@H]1O[C@H](CSCC[C@H](N)C(=O)O)[C@@H](O)[C@H]1O` [AdoHcy], for which the “X-ray crystal structure of the complex (2.1 and 1.9 Å)” value in data set [1] is “Δ42-DOT1A crystallized in complex with the methyl donor product AdoHcy in two different crystal forms”.
As for `C[S+](CC[C@H](N)C(=O)O)C[C@H]1O[C@@H](n2cnc3c(N)ncnc32)[C@H](O)[C@@H]1O` (stereo partly shown) [AdoMet], the “UV cross-linking of [methyl-3H]AdoMet, SDS-PAGE fluorography” value in data set [2] was “AdoMet binding analyzed by cross-linking experiments showing Coomassie stain (middle) and fluorography (bottom)”. Besides, the “3H-methyl incorporation into nucleosome; quantitative MS of H3K76” value in data set [3] was “Methyltransferase activity of full-length DOT1A, Δ42-DOT1A, and Δ27-DOT1B toward the recombinant T. brucei nucleosome”; in data set [4] it was “Δ27-DOT1B showed significant methyltransferase activity by measuring tritium incorporation from [methyl-^3H] AdoMet in vitro”.

B1: FAM-dsDNA probe (dsDNA)
DNA 1: CTACAGTTCGTCAGGATTCC
DNA 2: CCGGAATCCTGACGAACTGTAG
With B1, the figures for the Kd in data set [5] and in data set [7] were 110 ± 20 nM and 900 ± 200 nM, respectively. The binding result in data set [6] is recorded as “no binding”.

The Kd is the free concentration of one partner at which half of the binding sites on the other are occupied at equilibrium, for simple one-to-one binding.
